From article PMC8426393, “Interactions of anti-COVID-19 drug candidates with hepatic transporters may cause liver toxicity and affect pharmacokinetics” (Scientific Reports, 2021)
Entries after “also recorded” stand apart in the source; their conditions may differ. Read-outs that look alike come from different tables or passages of the source.

Assays:
[1] = target: T1, OATP1B1 (Homo sapiens, UniProt Q9Y6L6); experiment: OATP1B1-dependent pyranine uptake in overexpressing A431 cells; format: cell-based; conditions: for OATP1B1 Type of effect: A431 cells
T1 construct: expressed in transfected cells; host or cells: A431 cells (ATCC)
T1 sequence (Q9Y6L6 1-691): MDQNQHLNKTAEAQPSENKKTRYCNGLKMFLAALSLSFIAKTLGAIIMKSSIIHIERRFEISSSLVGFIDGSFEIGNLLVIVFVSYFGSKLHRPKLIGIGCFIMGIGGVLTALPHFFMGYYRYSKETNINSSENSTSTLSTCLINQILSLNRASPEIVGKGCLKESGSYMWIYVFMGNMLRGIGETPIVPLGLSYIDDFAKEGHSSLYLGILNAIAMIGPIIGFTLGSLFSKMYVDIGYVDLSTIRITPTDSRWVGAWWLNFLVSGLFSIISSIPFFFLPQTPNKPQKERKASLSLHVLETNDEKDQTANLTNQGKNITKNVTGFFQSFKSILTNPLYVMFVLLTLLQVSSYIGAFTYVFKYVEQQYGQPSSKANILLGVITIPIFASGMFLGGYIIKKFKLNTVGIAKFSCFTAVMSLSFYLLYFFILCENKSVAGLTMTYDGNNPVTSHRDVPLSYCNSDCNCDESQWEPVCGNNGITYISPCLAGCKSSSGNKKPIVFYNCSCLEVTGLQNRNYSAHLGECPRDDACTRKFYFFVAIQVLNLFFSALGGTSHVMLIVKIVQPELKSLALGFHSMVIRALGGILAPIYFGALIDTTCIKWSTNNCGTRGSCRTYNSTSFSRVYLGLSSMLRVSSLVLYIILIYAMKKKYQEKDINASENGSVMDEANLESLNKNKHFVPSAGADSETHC

[2] = target: T2, ABCC3/MRP3 (Homo sapiens, UniProt O15438); experiment: MRP3 vesicular transport: ATP- and benzbromarone-sensitive CDCF uptake into inverted HEK-293 membrane vesicles; format: biochemical; conditions: for ABCC3/MRP3 Type of effect: HEK-293 vesicles; for concentration at which MRP3 transport is inhibited: CDCF uptake
T2 construct: purchased Solvo Biotechnology (Budapest, Hungary); host or cells: HEK-293 cells
T2 sequence (O15438 whole entry): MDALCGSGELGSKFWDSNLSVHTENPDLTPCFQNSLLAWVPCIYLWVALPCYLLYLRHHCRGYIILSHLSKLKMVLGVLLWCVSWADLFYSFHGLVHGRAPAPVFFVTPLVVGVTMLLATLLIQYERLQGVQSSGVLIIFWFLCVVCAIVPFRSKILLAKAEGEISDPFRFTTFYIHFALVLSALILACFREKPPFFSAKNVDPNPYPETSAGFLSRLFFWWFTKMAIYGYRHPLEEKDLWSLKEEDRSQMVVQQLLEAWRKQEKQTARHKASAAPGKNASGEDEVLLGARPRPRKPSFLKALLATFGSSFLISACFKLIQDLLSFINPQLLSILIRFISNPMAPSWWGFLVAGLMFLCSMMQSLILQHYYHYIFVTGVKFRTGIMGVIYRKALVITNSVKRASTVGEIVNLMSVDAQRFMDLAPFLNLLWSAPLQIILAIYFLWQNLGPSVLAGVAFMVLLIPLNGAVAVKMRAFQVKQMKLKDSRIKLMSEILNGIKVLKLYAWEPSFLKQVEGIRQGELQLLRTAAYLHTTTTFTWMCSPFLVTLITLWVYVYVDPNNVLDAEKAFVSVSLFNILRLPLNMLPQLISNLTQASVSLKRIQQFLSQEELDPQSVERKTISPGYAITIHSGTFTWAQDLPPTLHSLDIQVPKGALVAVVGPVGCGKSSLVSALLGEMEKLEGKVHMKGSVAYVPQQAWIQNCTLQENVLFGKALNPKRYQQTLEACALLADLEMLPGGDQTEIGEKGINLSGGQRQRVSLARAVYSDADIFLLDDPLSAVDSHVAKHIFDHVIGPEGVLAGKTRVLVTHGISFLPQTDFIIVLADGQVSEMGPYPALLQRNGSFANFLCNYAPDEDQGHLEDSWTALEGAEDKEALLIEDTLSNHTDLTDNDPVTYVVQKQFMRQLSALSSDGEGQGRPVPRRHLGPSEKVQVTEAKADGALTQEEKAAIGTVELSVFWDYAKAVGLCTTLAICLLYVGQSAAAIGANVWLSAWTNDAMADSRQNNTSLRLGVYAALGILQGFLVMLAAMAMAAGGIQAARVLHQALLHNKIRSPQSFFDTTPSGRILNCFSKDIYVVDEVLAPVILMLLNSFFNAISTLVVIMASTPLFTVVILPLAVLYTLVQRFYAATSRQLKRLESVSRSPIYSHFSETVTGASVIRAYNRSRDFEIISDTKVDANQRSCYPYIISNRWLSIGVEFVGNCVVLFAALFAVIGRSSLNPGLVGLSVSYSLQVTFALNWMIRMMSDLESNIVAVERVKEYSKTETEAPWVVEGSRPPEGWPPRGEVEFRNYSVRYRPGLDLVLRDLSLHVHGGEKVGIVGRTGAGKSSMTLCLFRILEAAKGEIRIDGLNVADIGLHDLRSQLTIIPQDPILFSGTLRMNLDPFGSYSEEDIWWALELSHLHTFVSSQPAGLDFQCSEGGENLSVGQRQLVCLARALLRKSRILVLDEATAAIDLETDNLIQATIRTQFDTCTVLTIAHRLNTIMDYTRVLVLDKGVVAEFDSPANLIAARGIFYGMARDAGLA

[3] = target: T3, MATE1/SLC47A1 (Homo sapiens, UniProt Q96FL8); experiment: MATE1-dependent metformin uptake in MATE1-overexpressing MDCKII cells; format: cell-based; conditions: for MATE1/SLC47A1 Type of effect: metformin 10 µM, 10 min, 37 °C, MDCKII cells
T3 construct: expressed in transfected cells; host or cells: MDCKII cells, lentiviral transduction
T3 sequence (Q96FL8 1-570): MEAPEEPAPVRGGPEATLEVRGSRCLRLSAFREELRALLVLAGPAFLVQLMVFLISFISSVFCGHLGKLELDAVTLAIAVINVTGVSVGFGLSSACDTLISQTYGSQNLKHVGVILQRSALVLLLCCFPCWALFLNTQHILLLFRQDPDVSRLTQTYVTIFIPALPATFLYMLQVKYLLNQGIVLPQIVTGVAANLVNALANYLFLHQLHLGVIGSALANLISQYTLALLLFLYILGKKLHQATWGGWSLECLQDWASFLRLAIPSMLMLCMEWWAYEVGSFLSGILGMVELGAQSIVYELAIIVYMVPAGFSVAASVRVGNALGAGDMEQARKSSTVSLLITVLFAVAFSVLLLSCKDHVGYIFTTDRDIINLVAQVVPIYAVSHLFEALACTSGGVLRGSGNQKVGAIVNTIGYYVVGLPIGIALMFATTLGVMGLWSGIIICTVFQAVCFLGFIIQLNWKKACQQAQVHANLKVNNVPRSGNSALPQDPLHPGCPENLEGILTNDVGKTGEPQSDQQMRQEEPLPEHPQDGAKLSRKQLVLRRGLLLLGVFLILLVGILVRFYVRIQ

[4] = target: T4, OCT1/SLC22A1 (Homo sapiens, UniProt O15245); experiment: OCT1-dependent metformin uptake in OCT1-overexpressing HEK-293 cells; format: cell-based; conditions: for OCT1/SLC22A1 Type of effect: metformin 10 µM, 5 min, 37 °C, HEK-293 cells
T4 construct: expressed in transfected cells; host or cells: HEK-293 cells, lentiviral transduction
T4 sequence (O15245 1-554): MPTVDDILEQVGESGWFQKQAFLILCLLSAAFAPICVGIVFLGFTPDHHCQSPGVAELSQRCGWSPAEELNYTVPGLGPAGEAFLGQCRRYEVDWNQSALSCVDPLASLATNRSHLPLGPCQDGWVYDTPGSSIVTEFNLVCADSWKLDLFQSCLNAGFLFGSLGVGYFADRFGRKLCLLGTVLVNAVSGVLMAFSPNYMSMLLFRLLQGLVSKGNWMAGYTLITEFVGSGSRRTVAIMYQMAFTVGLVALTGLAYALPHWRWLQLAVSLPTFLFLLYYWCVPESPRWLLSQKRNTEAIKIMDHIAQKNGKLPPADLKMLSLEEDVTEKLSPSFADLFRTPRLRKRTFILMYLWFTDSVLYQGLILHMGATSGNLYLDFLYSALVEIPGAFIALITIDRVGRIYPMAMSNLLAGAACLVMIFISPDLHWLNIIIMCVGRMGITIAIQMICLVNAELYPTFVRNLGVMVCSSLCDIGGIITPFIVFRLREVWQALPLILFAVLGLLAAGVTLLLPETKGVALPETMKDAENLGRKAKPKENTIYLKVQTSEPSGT

[5] = system: ABCG2/BCRP; set-up: method as in Telbisz et al., 2021; conditions: vesicular transporter assay, measured previously; ref Telbisz et al., 2021; cited from earlier work
[6] = system: ABCB1/Pgp; set-up: method as in Telbisz et al., 2021; conditions: vesicular transporter assay, measured previously; ref Telbisz et al., 2021; cited from earlier work

| SMILES | OATP1B1 Type of effect ([1]; pyranine 10 µM, 15 min, 37 °C) | ABCC3/MRP3 Type of effect ([2]; CDCF 5 µM, 37 °C, 10 min) | MATE1/SLC47A1 Type of effect [3] | OCT1/SLC22A1 Type of effect [4] | ABCG2/BCRP type of effect [5] | IC50 [5] [µM] | IC50 [1] [µM] | IC50 [2] [µM] | concentration at which MRP3 transport is inhibited [2] [µM] | IC50 [3] [µM] | IC50 [4] [µM] | ABCB1/Pgp Type of effect [6] | IC50 [6] [µM] | concentration of strong inhibitory effect on OCT1 ([4]; metformin uptake) | IC50 ([1]; approximate IC50, pyranine 10 µM, 15 min, 37 °C) [µM] | IC50 ([2]; approximate IC50, CDCF 5 µM, 37 °C, 10 min) [µM] |
| --- | --- | --- | --- | --- | --- | --- | --- | --- | --- | --- | --- | --- | --- | --- | --- | --- |
| NC(=O)c1nc(F)c[nH]c1=O [FAV, favipiravir] | did not modify OATP functionality | did not influence MRP3 transport at all | practically no inhibition | no significant inhibitory action | – | – | – | – | – | – | – | – | – | – | – | – |
| Cc1cccc(C)c1OCC(=O)N[C@@H](Cc1ccccc1)[C@@H](O)C[C@H](Cc1ccccc1)NC(=O)[C@H](C(C)C)N1CCCNC1=O [LOP, lopinavir] | – | inh | strong inhibitory action and inh | less inhibitory and inh | inh | 4.2 | 1.1 | > 40 | > 20 | 7.7 | > 50 | inh | 0.6 | – | – | – |
| CCC(CC)COC(=O)[C@H](C)N[P@](=O)(OC[C@H]1O[C@@](C#N)(c2ccc3c(N)ncnn23)[C@H](O)[C@@H]1O)Oc1ccccc1 [REM, remdesivir] | inh | did not influence MRP3 transport at all; also recorded: did not inhibit; also recorded: No effect | strong inhibitory action and inh | strong inhibitory effect and inh | inh | > 50 | 2.9 | – | – | 2.3 | 6.1 | inh | > 20 | below 10 µM | – | – |
| CCC(C)C1OC2(CCC1C)CC1CC(CC=C(C)C(OC3CC(OC)C(OC4CC(OC)C(O)C(C)O4)C(C)O3)C(C)C=CC=C3COC4C(O)C(C)=CC(C(=O)O1)C34O)O2 (stereo not drawn) [IVE, ivermectin] | inh | inh | practically no inhibition; also recorded: No effect | no significant inhibitory action; also recorded: no effect | inh | 1.1 | – | – | > 20 | – | – | inh | 0.3 | – | ≥ 20 | > 50 |
